Laboratory results: patent US20200199681A1, “MDA-7 CANCER THERAPIES AND METHODS OF DETECTING BIOMOLECULES” (VIRGINIA COMMONWEATLH UNIVERSITY, priority 2016, published 2020)

Columns and labels:
miR-221 = experiment: level of miR-221 by real time PCR (RQ-PCR, taqman probe); assay type: cell-based, human; conditions: for miR-221 levels: low doses alone: ATO 1 μM, hydrogen peroxide 10 μM, pyocyanin 50 μM
cancer cells = conditions: cited from earlier work
U2OS cells = conditions: cited from earlier work
[1] = test system: non-cancerous immortalized NOK cells; conditions: cited from earlier work
Hela and DU-145 cells = conditions: cited from earlier work

CC(=O)N[C@@H](CS)C(=O)O [NAC, N-acetyl cysteine]
effect on down regulation of miR-221 by ROS inducer with Ad.mda-7 (miR-221; MDA-MB-231 cells, pretreatment for 12 hours): abrogated down regulation of miR-221
cell death mediated by mda-7/IL-24 (cancer cells): inhibits

C[S+]([O-])c1ccc(-c2nc(-c3ccncc3)c(-c3ccc(F)cc3)[nH]2)cc1 (stereo not drawn) [SB203580]
Ad.mda-7-induced apoptosis (cancer cells): inhibits

OO [hydrogen peroxide]
miR-221 levels (miR-221; MDA-MB-231 cells): did not alter

Cn1c2cccc(=O)c-2nc2ccccc21 [pyocyanin]
miR-221 levels (miR-221; MDA-MB-231 cells): did not alter

Arsenic trioxide
miR-221 levels (miR-221; MDA-MB-231 cells): did not alter

B1: Full length MDA-7/IL-24: full-length transcript with all 7 exons (protein, UniProt Q13007 1-206, looked up)
chain: MNFQQRLQSLWTLARPFCPPLLATASQMQMVVLPCLGFTLLLWSQVSGAQGQEFHFGPCQVKGVVPQKLWEAFWAVKDTMQAQDNITSARLLQQEVLQNVSDAESCYLVHTLLEFYLKTVFKNYHNRTVEVRTLKSFSTLANNFVLIVSQLQPSQENEMFSIRDSAHRRFLLFRRAFKQLDVEAALTKALGEVDILLTWMQKFYKL
modifications: full-length
notes: full-length transcript with all 7 exons
U2OS cell viability (U2OS cells): capable of reducing U2OS cell viability
viability of NOK cells [1]: no effect

B2: His-MDA-7: purified recombinant His tagged MDA-7/IL-24 protein (protein, UniProt Q13007 52-206, looked up)
Interleukin-24: QEFHFGPCQVKGVVPQKLWEAFWAVKDTMQAQDNITSARLLQQEVLQNVSDAESCYLVHTLLEFYLKTVFKNYHNRTVEVRTLKSFSTLANNFVLIVSQLQPSQENEMFSIRDSAHRRFLLFRRAFKQLDVEAALTKALGEVDILLTWMQKFYKL
modifications: His tag
notes: purified recombinant His tagged MDA-7/IL-24 protein
miR-221 expression (miR-221; A549 cells (lack cognate receptor pairs)): remained unchanged
miR-221 expression (miR-221; A549 cells overexpressing IL-20R2 or IL-22R1): sensitive to miR-221 down regulation
miR-221 expression (miR-221; DU-145 cells (both receptor types)): decreased

B3: M1: MDA-7/IL-24 deletion mutant, signal peptide deleted (protein, UniProt Q13007 52-206, looked up)
Interleukin-24: B2 Interleukin-24
modifications: signal peptide deleted
notes: MDA-7/IL-24 deletion mutant, signal peptide deleted
tumor inhibitory effects of MDA-7/IL-24 (Hela and DU-145 cells): did not disrupt the tumor inhibitory effects
